The record followed here is ChEMBL document CHEMBL1156102, “Identification of iminooxothiazolidines as secreted frizzled related protein-1 inhibitors” (Bioorg Med Chem Lett, 2009).

pEC50, pKd: −log10 of the molar value. Active and inactive are the calls of the source. The rule behind the calls is not given here.

The target of assay [1] is T1, Secreted frizzled-related protein 1 (Homo sapiens) (UniProt Q8N474).
T1 sequence (whole entry): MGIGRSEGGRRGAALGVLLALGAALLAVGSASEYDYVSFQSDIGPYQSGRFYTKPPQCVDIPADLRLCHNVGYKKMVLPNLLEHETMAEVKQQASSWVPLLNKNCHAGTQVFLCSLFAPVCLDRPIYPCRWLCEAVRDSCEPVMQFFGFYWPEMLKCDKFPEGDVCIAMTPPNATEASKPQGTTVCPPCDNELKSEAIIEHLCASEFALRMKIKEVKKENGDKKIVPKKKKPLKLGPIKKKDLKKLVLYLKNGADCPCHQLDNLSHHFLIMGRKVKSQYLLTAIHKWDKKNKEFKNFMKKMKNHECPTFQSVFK
Nature of the assay: Inhibition of human SFRP1 transfected in human U20S cells at 15 uM by TCF-luciferase reporter gene assay relative to control. The class given is cell-based. The following applies: U2OS.

Assay [2] is filed under the species Mus musculus. Nature of the assay: Ex vivo osteogenic activity in mouse calvaria assessed in increase in total bone area at 15 uM. The class given is functional.
For assay [3], the species on record is Mus musculus. As to the kind of experiment: Ex vivo osteogenic activity in mouse calvaria assessed in increase in osteoblasts number at 15 uM. In kind it is functional.
Assay [4] addresses T1, Secreted frizzled-related protein 1 (Homo sapiens). As to the kind of experiment: Inhibition of human SFRP1 transfected in human U20S cells at 30 uM by TCF-luciferase reporter gene assay relative to control. In kind it is cell-based. To be noted: U2OS. On the technique in general: Reporter assays use an easily measured gene product as a stand-in for the process of interest.

The target in assay [5] is T2, Secreted frizzled-related protein 1 (Homo sapiens, UniProt Q8N474).
T2 sequence (Q8N474 whole entry): T1 sequence (whole entry)
As to the kind of experiment: Inhibition of human SFRP1 transfected in human U20S cells by TCF-luciferase reporter gene assay. In kind it is cell-based, U2OS.

In assay [6] the target is Proto-oncogene Wnt-3 (Homo sapiens) (UniProt P56703). Nature of the assay: Binding affinity to Wnt3.
Sequence of Proto-oncogene Wnt-3 (Homo sapiens) (P56703 whole entry): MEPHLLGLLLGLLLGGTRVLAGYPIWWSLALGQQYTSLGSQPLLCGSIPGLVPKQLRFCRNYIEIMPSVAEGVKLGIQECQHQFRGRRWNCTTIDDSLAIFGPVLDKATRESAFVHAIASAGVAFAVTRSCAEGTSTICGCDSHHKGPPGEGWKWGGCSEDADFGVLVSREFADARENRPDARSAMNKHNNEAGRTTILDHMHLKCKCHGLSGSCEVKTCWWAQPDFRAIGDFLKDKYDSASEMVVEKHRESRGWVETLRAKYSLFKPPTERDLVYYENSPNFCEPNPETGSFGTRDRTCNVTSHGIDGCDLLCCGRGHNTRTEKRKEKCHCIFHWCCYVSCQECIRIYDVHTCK
In assay [7] the target is T2, Secreted frizzled-related protein 1. As to the kind of experiment: Binding affinity to human SFRP1 by fluorescence spectroscopy.
The target in assay [8] is Secreted frizzled-related protein 1 (Homo sapiens) (UniProt Q8N474). As to the kind of experiment: Inhibition of human SFRP1.

With `CCOC(=O)c1c(NC(=O)CC2SC(=N)NC2=O)sc2c1CCCCC2` (stereo unspecified), the fold change (FC) in assay [1] is 1.9.

For the molecule `CCOC(=O)c1c(NC(=O)CC2SC(=N)NC2=O)sc(C)c1C` (stereo unspecified), the fold change (FC) in assay [1] was found to be 2.3. Further, the result in assay [2] and in assay [3] was Active.

On to `CCOC(=O)c1c(NC(=O)CC2SC(=O)NC2=O)sc2c1CCCC2` (stereo unspecified), for which the fold change (FC) in assay [1] was 1.

For `N=C1NC(=O)C(CC(=O)Nc2ccccc2)S1` (stereo unspecified), in assay [4], the fold change (FC) was found to be 1.1.

As for `N=C1NC(=O)C(CC(=O)Nc2cccc(Cl)c2)S1` (stereo unspecified), the fold change (FC) in assay [4] is 1.7.

As for `CCOC(=O)c1c(NC(=O)CC2SC(=N)NC2=O)sc2c1CCC2` (stereo unspecified), the fold change (FC) in assay [1] stood at 1.5.

Turning to `CCOC(=O)c1c(NC(=O)CC2SC(=N)NC2=O)sc(Br)c1C` (stereo unspecified), in assay [1], the fold change (FC) is 2.6.

With `COC(=O)c1cc(-c2ccccc2)sc1NC(=O)CC1SC(=N)NC1=O` (stereo unspecified), in assay [1], the fold change (FC) was 0.9.

Take `CCOC(=O)c1ccccc1NC(=O)CC1SC(=N)NC1=O` (stereo unspecified): the fold change (FC) in assay [1] is 1.1.

Regarding `CCOC(=O)c1cccc(NC(=O)CC2SC(=N)NC2=O)c1` (stereo unspecified), in assay [4], the fold change (FC) stood at 1.5.

Take `CCOC(=O)c1cc(CC)sc1NC(=O)CC1SC(=N)NC1=O` (stereo unspecified): the fold change (FC) in assay [1] came to 1.7.

Consider `N#Cc1c(NC(=O)CC2SC(=N)NC2=O)sc2c1CCCC2` (stereo unspecified), for which the fold change (FC) in assay [1] is 1.2.

For `CCOC(=O)c1c(NC(=O)CC2SC(=N)NC2=O)sc(-c2ccccc2)c1C` (stereo unspecified), the fold change (FC) in assay [1] is 0.8.

As for `CCOC(=O)c1c(NC(=O)CC2SC(=N)NC2=O)sc(C)c1-c1ccccc1` (stereo unspecified), the fold change (FC) in assay [1] amounted to 1.8.

With `CCOC(=O)c1c(NC(=O)CC2S/C(=N/C)N(C)C2=O)sc(C)c1C` (stereo unspecified), the fold change (FC) in assay [1] came out at 1.2.

Turning to `CCOC(=O)c1c(NC(=O)CC2S/C(=N/C)NC2=O)sc(C)c1C` (stereo unspecified), in assay [1], the fold change (FC) came out at 1.2.

Consider `CCOC(=O)c1c(NC(=O)CC2SC(=N)NC2=O)sc(Br)c1CNc1ccccc1` (stereo unspecified), for which, in assay [1], the fold change (FC) was found to be 2.5.

Take `CCOC(=O)c1c(NC(=O)CC2SC(=N)NC2=O)sc2c1CCCC2` (stereo unspecified): the fold change (FC) in assay [1] is 1.6.

Consider `N=C1NC(=O)C(CC(=O)NCc2cccc(Cl)c2)S1` (stereo unspecified), for which, in assay [4], the fold change (FC) is 1.

Regarding `CCOC(=O)c1c(C)csc1NC(=O)CC1SC(=N)NC1=O` (stereo unspecified), in assay [1], the fold change (FC) was determined as 2.

For the molecule `N=C1NC(=O)C(CC(=O)Nc2sc3c(c2C(N)=O)CCCC3)S1` (stereo unspecified), the fold change (FC) in assay [1] stood at 1.1.

As for `CC/N=C1\NC(=O)C(CC(=O)Nc2sc(C)c(C)c2C(=O)OCC)S1` (stereo unspecified), the fold change (FC) in assay [1] stood at 1.2.

On to `COC(=O)c1ccsc1NC(=O)CC1SC(=N)NC1=O` (stereo unspecified), for which the fold change (FC) in assay [1] is 1.2.

As for `COC(=O)c1c(NC(=O)CC2SC(=N)NC2=O)sc(C)c1C` (stereo unspecified), in assay [5], the pEC50 (in general, the negative decadic logarithm of the EC50, by convention in mol/L) is 5.14. Besides, the fold change (FC) in assay [1] was 1.9. The result in assay [6] and in assay [8] was Active. Also, the pKd (commonly the negative decadic logarithm of the Kd, by convention in mol/L) in assay [7] was 6.14.

As for `N=C1NC(=O)C(CC(=O)Nc2cccc(Cl)c2Cl)S1` (stereo unspecified), the fold change (FC) in assay [4] turned out to be 1.
